These results are taken from patent US11834432B2, “Substituted amino six-membered nitric heterocyclic ring compound and preparation and use thereof” (SHANGHAI INSTITUTE OF MATERIA MEDICA, CHINESE ACADEMY OF …, priority 2016, dated 2023).

One may read the IC50 as the concentration needed to halve the response being measured.

Series [1] has as its system human gastric cancer SNU-16 subcutaneously transplanted tumor. Nature of the series: Growth of subcutaneously transplanted tumor in human gastric cancer SNU-16 nude mice. The series is classed as in vivo. As to the method: The human gastric cancer SNU-16 cell strain was preserved in our laboratory.
S10 groups (30 mg/kg and 10 mg/kg) were orally administered once a day for 21 days; AZD4547 group (10 mg/kg) was administered orally once a day for 21 days; solvent control group was given the same amount of water for injection.

The test system of series [2] is human lung cancer NCI-H1581 subcutaneously transplanted tumor. Briefly: Growth of subcutaneously transplanted tumor in human lung cancer NCI-H1581 nude mice.
Description: The cell strain was inoculated in the right axilla of the nude mice, and the amount of cells inoculated was 5×10^6/mouse to form transplanted tumor, which was directly inoculated and used.
The tumor tissue in the prosperous growth period was cut into 1.5 mm^3, and inoculated subcutaneously in the right axilla of the nude mice under aseptic conditions. The diameter of the transplanted tumor in the nude mice was measured with a vernier caliper, and the animals were randomly grouped when the average volume of tumors was about 150-160 mm^3. […] The solvent control group was given an equal amount of water for injection. The diameter of the transplanted tumor was measured twice a week during the entire experiment, and the body weight of the mice was also weighed. The calculation formula of tumor volume (TV) is: TV=1/2×a×b^2, where a and b respectively represent the length and width of the tumor. The relative tumor volume (RTV) was calculated based on the measured results and the formula was: RTV=Vt/V0, where V0 is the tumor volume measured at grouping and dosing (d0), and Vt is the tumor volume at each measurement.
Series [3] relates to human gastric cancer SNU-16 subcutaneously transplanted tumor. Nature of the series: Growth of subcutaneously transplanted tumor in human gastric cancer SNU-16 nude mice. The series is classed as in vivo. The source holds these as a separate data set.
Series [4] has as its target FGFR1 kinase domain recombinant protein (Homo sapiens (Human), UniProt P11362). Briefly: Inhibition of receptor tyrosine kinase FGFR1 activity (ELISA). Type of series: biochemical. To be noted: for inhibition at 0.1 µM: 1 h, read-out: Inhibition ratio (%) @ 0.1 μM. As to the method: 1. Preliminary Evaluation Inhibition on Receptor Tyrosine Kinase FGFR1 Activity of Compound
1. […] The liquid from the well was discarded. The plate was washed for three times with T-PBS (0.1% Tween-20 in potassium-free PBS, 200 μL/well), 5 minutes for each time. The elisa plate was dried in 37° C. dryer for 1-2 hours.
2. 49 μL of ATP solution diluted in reaction buffer (50 mM HEPES pH 7.4, 50 mM MgCl2, 0.5 mM MnCl2, 0.2 mM Na3VO4, 1 mM DTT) was added into each well, and 1 μL of the test compound was added to each well, and then 50 μL of FGFR1 kinase domain recombinant protein diluted in reaction buffer was added to initiate the reaction, and two control wells without ATP were required for each experiment. The reaction was performed on a Shaker (100 rpm) at 37° C. for 1 hour. The liquid from the well was discarded, and the plate was washed with T-PBS for three times.
3. The antibody PY99 dilution (antibody diluted 1:500 in T-PBS with BSA 5 mg/mL) was added at 100 μL/well, and shaken for 0.5 hours on a 37° C. shaker. The liquid from the well was discarded, and the plate was washed with T-PBS for three times.
4. The horseradish peroxidase-labeled goat anti-mouse second antibody dilution (antibody diluted 1:2000 in T-PBS with BSA 5 mg/mL) was added at 100 μL/well, and shaken for 0.5 hours on a 37° C. shaker. The liquid from the well was discarded, and the plate was washed with T-PBS for three times.
5. 2 mg/mL OPD coloration solution (diluted with 0.1 M citric acid-sodium citrate buffer containing 0.03% H2O2 (pH=5.4)) was added at 100 μL/well, and reacted for 1-10 minutes at 25° C. in darkness.
6. The reaction was quenched with 50 μL/well of 2M H2SO4, and the plate was read using a tunable microplate microplate reader VERSAmax at 490 nm.
(§1) The IC50 values were obtained by four-parameter regression analysis using the software supplied with the microplate reader.
On the technique in general: ELISA stands for enzyme-linked immunosorbent assay.

Series [5] concerns SNU16 cells. Nature of the series: Inhibition of proliferation of SNU16 cells (CCK-8). Type of series: cell-based. To be noted: Homo sapiens, SNU-16, 72 h; for inhibition at 0.01 µM: 10 nM; for inhibition at 0.01 µM / inhibition at 0.1 µM / inhibition at 1 µM: 72 h, read-out: Inhibition ratio (%); for inhibition at 0.1 µM: 100 nM; for inhibition at 1 µM: 1000 nM. As to the method:
The inhibitory effect on proliferation of SNU16 cells of a compound was examined by CCK-8 Cell Counting Kit (Dojindo). The steps are as follows: SNUI 6 cells at Logarithmic growth phase were seeded in a 96-well culture plate at appropriate density, 90 ul for each well. After cultured overnight, different concentrations of drugs were added and treated for 72 h, while solvent control well was set (negative control). After 72 h, the influence of the compound on the proliferation of cells was observed by CCK-8 cell counting kit (Dojindo). 10 μL of CCK-8 reagent was added to each well. After incubated for 2-4 hours in a 37° C. incubator, the plate was read with SpectraMax 190 microplate reader at wavelength 450 nm.
as §1

FGFR1 kinase domain recombinant protein, sequence (P11362 478-767): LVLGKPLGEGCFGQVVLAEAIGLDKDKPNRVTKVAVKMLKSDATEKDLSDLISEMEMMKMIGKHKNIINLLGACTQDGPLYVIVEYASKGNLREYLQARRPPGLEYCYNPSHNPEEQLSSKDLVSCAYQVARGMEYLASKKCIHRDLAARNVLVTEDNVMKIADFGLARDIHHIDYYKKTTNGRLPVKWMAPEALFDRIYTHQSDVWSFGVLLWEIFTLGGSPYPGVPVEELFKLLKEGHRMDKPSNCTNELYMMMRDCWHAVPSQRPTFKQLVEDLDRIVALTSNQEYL

As for `COc1cc(CCc2cc(NC(=O)c3ccc(N4CC(C)NC(C)C4)cc3)n[nH]2)cc(OC)c1` (centres unmarked) [AZD4547, reference compound], in series [1] (10 mg/kg po qd/21, d0), the “Body weight (g) d0” value came to 20.1 g and the “TV (mm^3, mean ± SD) d0” value is reported as 103 ± 18 mm^3. Further, in series [1] (10 mg/kg po qd/21, d21), the “Body weight (g) d21” value came out at 22.4 g; the “RTV (mean ± SD)” value came to 8.21 ± 3.91; the “T/C (%)” value came to 59.80%; the “TV (mm^3, mean ± SD) d21” value came out at 790 ± 247 mm^3.
For the molecule `CNC(=O)n1ccc2cc(Oc3ccnc(NC(=O)c4ccc(C5CCN(CCO)CC5)cc4)c3)c(OCCOC)cc21` [Compound E7090, reference compound], the “Relative tumor proliferation rate T/C (%)” value in series [2] (6.25 mg/Kg) is reported as 46%; in series [2] (12.5 mg/Kg), 21%; in series [2] (25 mg/Kg) it was 13%; in series [2] (50 mg/Kg) it was 8%; in series [3] (6.25 mg/Kg), 49%; in series [3] (25 mg/Kg), 17%. The “Relative tumor proliferation rate T/C (%)” value in series [3] (50 mg/Kg) is given as 18%; in series [1] (12.5 mg/Kg), 26%.
Regarding `CNC(=O)c1cccc2cc(Oc3ccnc(NC(=O)c4ccc(OCCN5CC(F)C5)cc4)c3)ccc12` [Compound S1], in series [4], the IC50 was below 100 nM and the inhibition at 0.1 µM is 72%.
For `CNC(=O)c1cccc2cc(Oc3ccnc(NC(=O)c4ccc(OCCN5CC(F)(F)C5)cc4)c3)ccc12` [Compound S2] the same measures were below 100 nM and 80%.
Take `CNC(=O)c1cccc2cc(Oc3ccnc(NC(=O)c4ccc(OCC5(N)CC5)cc4)c3)ccc12` [Compound S3]: in series [4], the IC50 was below 10 nM and the inhibition at 0.1 µM amounted to 90%.
Take `CNC(=O)c1cccc2cc(Oc3ccnc(NC(=O)c4ccc(OCCN5CCCC5)cc4)c3)ccc12` [Compound S4]: in series [4], the IC50 is below 10 nM and the inhibition at 0.1 µM came to 74%. In series [5], 29.2 nM corresponded to half-maximal inhibition (IC50), the inhibition at 0.01 µM was found to be 55.3%, the inhibition at 0.1 µM was determined as 61% and the inhibition at 1 µM worked out at 59%.
Consider `CNC(=O)c1cccc2cc(Oc3ccnc(NC(=O)c4ccc(N5CCN(C)CC5)cc4)c3)ccc12` [Compound S5], for which, in series [4], the inhibition at 0.1 µM turned out to be 87%. Also, in series [5], half-maximal inhibition (IC50) was put at 13.8 nM, the inhibition at 0.01 µM amounted to 60.4%, the inhibition at 0.1 µM came out at 60.1% and the inhibition at 1 µM amounted to 57.8%.
Regarding `CNC(=O)c1cccc2cc(Oc3ccnc(NC(=O)c4ccc(C5CCNCC5)cc4)c3)ccc12` [Compound S6], in series [4], the IC50 is below 10 nM and the inhibition at 0.1 µM came to 84%. In addition, in series [5], the IC50 was found to be 15.9 nM, the inhibition at 0.01 µM worked out at 45.1%, the inhibition at 0.1 µM came to 63.5% and the inhibition at 1 µM turned out to be 59.6%.
Regarding `CNC(=O)c1cccc2cc(Oc3ccnc(NC(=O)c4ccc(N5CCOCC5)cc4)c3)ccc12` [Compound S7], in series [4], the IC50 was below 10 nM and the inhibition at 0.1 µM was 91%. Besides, in series [5], the inhibition at 0.01 µM was found to be 30.1%, the inhibition at 0.1 µM was 53.3% and the inhibition at 1 µM stood at 60.5%.
The matching figures for `CNC(=O)c1cccc2cc(Oc3ccnc(NC(=O)c4ccc(N5CC(C)OC(C)C5)cc4)c3)ccc12` (centres unmarked) [Compound S8]: below 10 nM, 93%, 23.2%, 36.3% and 48.1%.
Turning to `CNC(=O)c1cccc2cc(Oc3ccnc(NC(=O)c4ccc(N5CCNC(C)C5)cc4)c3)ccc12` (centres unmarked) [Compound S9], in series [4], the IC50 is below 10 nM and the inhibition at 0.1 µM came to 95%. In series [5], half-maximal inhibition (IC50) required 13.8 nM, the inhibition at 0.01 µM came to 70.9%, the inhibition at 0.1 µM came to 73.2% and the inhibition at 1 µM came out at 73.3%.
For the molecule `CNC(=O)c1cccc2cc(Oc3ccnc(NC(=O)c4ccc(N5CCN(CCO)CC5)cc4)c3)ccc12` [Compound S11], in series [4], the IC50 is below 10 nM and the inhibition at 0.1 µM worked out at 89%.
For `CNC(=O)c1cccc2cc(Oc3ccnc(NC(=O)c4ccc(CN5CCN(C)CC5)c(C(F)(F)F)c4)c3)ccc12` [Compound S12] the same measures were below 1000 nM and 44%.
For the molecule `CNC(=O)c1cccc2cc(Oc3ccnc(NC(=O)c4ccc(N5C[C@@H](C)N[C@@H](C)C5)cc4F)c3)ccc12` [Compound S13], in series [4], the IC50 is above 1000 nM and the inhibition at 0.1 µM came out at 23%.
For `CNC(=O)c1cccc2cc(Oc3ccnc(NC(=O)c4ccc(N5C[C@@H](C)N[C@@H](C)C5)cc4OC)c3)ccc12` [Compound S14] the same measures were below 1000 nM and 40%.
For `CNC(=O)c1cccc2cc(Oc3ccnc(NC(=O)c4ccc(N5C[C@@H](C)N[C@@H](C)C5)cc4C)c3)ccc12` [Compound S15] the same measures were below 100 nM and 71%.
As for `CNC(=O)c1cccc2cc(Oc3ccnc(NC(=O)c4cnc(N5C[C@@H](C)N[C@@H](C)C5)nc4)c3)ccc12` [Compound S16], in series [4], the IC50 is below 100 nM and the inhibition at 0.1 µM was found to be 58%. Further, in series [5], the inhibition at 0.01 µM was 26.4%, the inhibition at 0.1 µM was 55.3% and the inhibition at 1 µM turned out to be 61.6%.
As for `CNC(=O)c1cccc2cc(Oc3ccnc(NC(=O)c4csc(N5CCN(C)CC5)n4)c3)ccc12` [Compound S17], in series [4], the IC50 is below 100 nM and the inhibition at 0.1 µM is 59%.
The matching figures for `CNC(=O)c1cccc2cc(Oc3ccnc(NC(=O)c4coc(N5CCN(C)CC5)n4)c3)ccc12` [Compound S18]: below 100 nM and 65%.
The matching figures for `CNC(=O)c1cccc2cc(Oc3ccnc(NC(=O)c4cnn(CCO)c4)c3)ccc12` [Compound S19]: below 10 nM and 86%.
For the molecule `CNC(=O)c1cccc2cc(Oc3ccnc(NC(=O)c4ccc(N5C[C@@H](C)N[C@@H](C)C5)cc4)n3)ccc12` [Compound S20], in series [4], the IC50 was below 10 nM and the inhibition at 0.1 µM came out at 94%.
The matching figures for `CNC(=O)c1cccc2cc(Oc3ccnc(NC(=O)c4ccc(NCC5(O)CCOCC5)cc4)c3)ccc12` [Compound S23]: below 10 nM and 86%.
For `COC(=O)c1cccc2cc(Oc3ccnc(NC(=O)c4ccc(N5C[C@@H](C)N[C@@H](C)C5)cc4)c3)ccc12` [Compound S24], in series [4], the IC50 is below 10 nM and the inhibition at 0.1 µM worked out at 87%.
